Results taken from patent US8895273B2, “Conversion of hexuronic acid to hexaric acid” (Teknologian Tutkimuskeskus VTT, priority 2008, dated 2014).

Columns and labels:
[1] = molecular target: T1, D-galacturonic acid dehydrogenase (uronate dehydrogenase, EC 1.1.1.203, uro1) (Agrobacterium fabrum, UniProt Q7CRQ0); assay: Michaelis-Menten characterization of the purified histidine-tagged D-galacturonic acid dehydrogenase (uro1); format: biochemical, Agrobacterium tumefaciens; conditions: for enzyme activity with the substrate: purified histidine-tagged protein
T1 construct: histidine-tag (His6); made in house; host or cells: Saccharomyces cerevisiae CEN.PK; purified on Ni-NTA-agarose
Experimental: (§1) The S. cerevisiae strain resulting from the Example 1 was then disintegrated by vortexing with glass beads and the yeast extract analysed for D-galacturonic acid dehydrogenase activity. In a control experiment a similar strain but with an empty plasmid was used. To assay the D-galacturonic acid dehydrogenase activity the crude cell extract was mixed with 0.5 mM NAD and 4 mM D-galacturonic acid in a 50 mM Tris pH 7.5 buffer containing 0.5 mM MgCl2. The activity was 0.12 units per mg of extracted protein. One unit is the activity that forms 1 μmol of product per minute. In the control strain no activity could be detected.
(§2) The D-galacturonic acid dehydrogenase with a histidine-tag at the N-terminal end was produced in a similar manner as in the Example 1, except that the histidine-tag was introduced by PCR. To introduce the histidine tag the following primers were used 5′-[…]-3′ (SEQ ID NO:5) in sense direction and 5′-[…]-3′ (SEQ ID NO:6) in anti-sense.
(§3) After the expression of the histidine-tagged protein in S. cerevisiae as described in the Example 1 the activity was measured as described in the Example 2. […] The histidine-tagged D-galacturonic acid dehydrogenase was then purified using a Ni-NTA-agarose (Qiagen) according to the instructions of the manufacturer. The purified enzyme gave a single band in an SDS PAGE.
(§4) The purified protein was then used to estimate the Michaelis-Menten constants.

[2] = molecular target: T2, uronate dehydrogenase from Pseudomonas (GenBank EU377538) (Pseudomonas syringae pv. tomato, UniProt Q888H1); assay: Enzyme activity of uronate dehydrogenase from Pseudomonas expressed in S. cerevisiae; format: biochemical, Pseudomonas syringae pv. tomato str. DC3000; conditions: yeast extract, with NAD, tested as in Example 2
T2 construct: The open reading frame was released by digestion with NcoI and SpeI; made in house; host or cells: Saccharomyces cerevisiae CEN.PK (crude cell extract)
Experimental: as §1
The DNA coding for uronate dehydrogenase was custom-synthesised by GENEART. The codes for the same amino acid as the gene with the GenBank accession number EU377538. The DNA sequence is in the Sequence Listing SEQ ID NO: 19. It codes for the amino acid sequence SEQ ID NO:20.
The open reading frame was released by digestion with NcoI and SpeI. The resulting fragment was then ligated to the NcoI and NheI sites of the pYX212 (R&D Systems) which is a multicopy yeast expression vector with PGK1 promoter and URA3 selection marker. The resulting vector was then transfected to the S. cerevisiae strain CEN.PK as in the Example 1. The enzyme activity was then tested as in Example 2.

[3] = system: O=C[C@H](O)[C@@H](O)[C@@H](O)[C@H](O)C(=O)O; assay: Michaelis-Menten characterization of the purified histidine-tagged D-galacturonic acid dehydrogenase (uro1); format: biochemical, Agrobacterium tumefaciens; conditions: other: purified histidine-tagged enzyme; Michaelis-Menten constant of the substrate/cofactor; pH 7.5
Experimental: as §1, §2, §3, §4

[4] = system: O=C[C@H](O)[C@@H](O)[C@H](O)[C@H](O)C(=O)O; assay: as above; format: biochemical, Agrobacterium tumefaciens; conditions: other: purified histidine-tagged enzyme; Michaelis-Menten constant of the substrate/cofactor; pH 7.5
Experimental: as §1, §2, §3, §4

T1 sequence (Q7CRQ0 whole entry, added parts left off): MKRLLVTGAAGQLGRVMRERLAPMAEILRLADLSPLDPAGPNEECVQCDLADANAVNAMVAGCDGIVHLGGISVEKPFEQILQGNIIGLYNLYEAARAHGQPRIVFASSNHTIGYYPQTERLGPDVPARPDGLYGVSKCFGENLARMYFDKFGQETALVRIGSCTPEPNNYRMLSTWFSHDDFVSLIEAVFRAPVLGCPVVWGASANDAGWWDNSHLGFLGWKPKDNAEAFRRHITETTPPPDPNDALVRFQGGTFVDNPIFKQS
T2 sequence (Q888H1 whole entry): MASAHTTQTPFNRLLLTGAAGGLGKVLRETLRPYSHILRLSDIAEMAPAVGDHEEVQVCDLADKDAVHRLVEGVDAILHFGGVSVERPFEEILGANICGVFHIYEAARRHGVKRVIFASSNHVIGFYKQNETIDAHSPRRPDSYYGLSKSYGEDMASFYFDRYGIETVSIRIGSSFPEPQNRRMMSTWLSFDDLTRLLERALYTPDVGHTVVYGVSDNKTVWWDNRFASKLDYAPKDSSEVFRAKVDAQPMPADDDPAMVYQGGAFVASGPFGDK

**Q.** How did the “enzyme activity with the substrate” value [1] turn out when `O=C[C@H](O)[C@@H](O)[C@@H](O)[C@H](O)C(=O)O` [D-galacturonic acid] was run?
**A.** The value was “active”.

**Q.** And the “enzyme activity with the substrate” value [2]?
**A.** The value was “showed activity”.

**Q.** With `O=C[C@H](O)[C@@H](O)[C@H](O)[C@H](O)C(=O)O` [GlcUA, D-glucuronic acid] as the compound, how does the “enzyme activity with the substrate” value [1] read?
**A.** Its value is “active”.

**Q.** What about the “enzyme activity with the substrate” value [2] of the same compound?
**A.** Its value is “showed activity”.

**Q.** Which results are given for `NC(=O)c1ccc[n+]([C@@H]2O[C@H](COP(=O)([O-])OP(=O)(O)OC[C@H]3O[C@@H](n4cnc5c(N)ncnc54)[C@H](O)[C@@H]3O)[C@@H](O)[C@H]2O)c1` [NAD]?
**A.** Km ([1]; purified histidine-tagged enzyme, Michaelis-Menten constant of the substrate/cofactor): 900 µM; Vmax ([1]; purified histidine-tagged enzyme, one unit forms 1 μmol of product per minute): 145 units per mg of protein

**Q.** How did the Km [3] turn out when “D-galacturonic acid dehydrogenase (uronate dehydrogenase, EC 1.1.1.203, uro1) (Agrobacterium fabrum str. C58)” was run?
**A.** The Km was 500 µM.

**Q.** What about the Vmax [3] of the same compound?
**A.** Its Vmax is 124 units per mg of protein.

**Q.** And the Km [4]?
**A.** Its Km is 1100 µM.

**Q.** And the Vmax [4]?
**A.** The Vmax was 221 units per mg of protein.
